Assay results: US20070155661A1, “Methods and compositions for modulating the development of stem cells” (THE BOARD of TRUSTEES of the LELAND STANDORD JUNIOR …, priority 2003, published 2007)

System: mouse ES cell-derived IPCCs
Assay: Insulin production by mouse ES cell-derived insulin-producing cell clusters (IPCCs)
Format: cell-based
Experimental: In duplicate experiments, we detect approximately 6000 ng insulin/mg protein produced by mouse embryoid bodies treated with a sequence of growth factors including GDF8.

GDF8: BMP/TGF-beta family growth factor, ~80% identical to GDF11 in the mature region
effect on insulin production (mouse ES cell-derived IPCCs): promotes insulin production
insulin produced by mouse embryoid bodies (mouse embryoid bodies treated with a sequence of growth factors including GDF8, duplicate experiments): approximately 6000 ng insulin/mg protein
